# Patent US8586533B2, “Treatment of early-stage osteoarthritis” (Kaohsiung Medical University, priority 2008, dated 2013)
# Experiments:
# rat articular cartilage [1] = assay: Papain-induced OA rat model, Safranin O-stained GAG histomorphometry; format: in vivo, Sprague-Dawley rats; settings: for GAG level (red:total ratio) versus OA group: p<0.01
# Protocol: (§1) Fifty-four 12-week-old male Sprague-Dawley rats (250-300 gm) were purchased from BioLASCO Taiwan and housed under standard laboratory conditions (temperature 24° C., 12-hour light-dark cycle) with food and water ad libitum. The animals were acclimatized to the laboratory environment for 1 week before the experiments.
# Rats were divided into the following 3 groups: OA (OA induction without PTH [1-34] treatment) (n=18), OA plus PTH (PTH [1-34] treatment followed by OA induction) (n=18), and PTH (PTH [1-34] treatment without OA induction) (n=18). Each left knee, which served as the contralateral control joint, was injected with vehicle without PTH treatment or OA induction. The right knees were the study joints. OA was induced in the right knees of rats in the OA and OA plus PTH groups with intraarticular injections of 20 μl of 4% papain solution and 20 μl of 0.03M cysteine. The injections were given with a 26-gauge needle via the patellar tendon on days 1, 4, and 7 of the experiment (see e.g., Nucl Med Commun (1996) 17(6): 529-35). In the OA plus PTH group, after OA induction, the right knees were injected intraarticularly with 40 μl of 10 nM PTH (1-34) every 3 days until rats were killed. In the PTH group, the same PTH (1-34) treatment was performed but without OA induction. Six rats from each group were killed by CO2 inhalation at the same time points as rats in the OA plus PTH group, in which PTH (1-34) treatment was given for 1, 3, and 5 weeks.
# After rats were killed, the knees were harvested, and the tibia plateaus with articular cartilage were collected and fixed with 10% neutral buffered formalin prior to histologic preparation. The samples were then decalcified in 10% formic acid/PBS. The decalcified tibia articular samples were paraffin embedded, and 5-μm microsections in the coronary plane were prepared. GAG was stained with Safranin O-fast green (1% Safranin O counterstained with 0.75% hematoxylin and then 1% fast green) (Sigma, St. Louis Mo.). Localized type II collagen and type X collagen were immunostained. Apoptotic cells in cartilage were TUNEL stained.
# GAG was stained red by Safranin O, and the total and red-stained areas in the articular cartilage of each proximal tibia were measured using Image-Pro Plus software, version 5.0. The ratio of red stained area to total area (red:total) in each group was calculated.
# Methods are as described above in the Sections entitled “Animal Experiments” and “Osteoarthritis Induction and PTH Treatment” except that the concentration of the administered dose of PTH (1-34) was 5 nM, 10 nM, or 100 nM. Safranin O-stained articular cartilage in the proximal tibia from the contralateral control joints of rats in the OA group and the study joints of rats in the OA and OA plus PTH groups are measured for the ratio of Safranin O-stained area to total area. The ratios of Safranin O-stained area to total area (red/total) among all groups after 5 weeks of PTH treatment are compared. Bars show the mean and SEM of 6 samples. Data are evaluated by one-way analysis of variance, and multiple comparisons are performed using Scheffe's method. **=P<0.01: the control joints versus study joints in the OA group at the indicated time point; ##=P<0.01: the OA joints versus study joints in groups of OA plus PTH 5 nM, OA plus PTH 10 nM, and OA plus PTH 100 nM.
# [2] = tested on: human articular chondrocytes; assay: Dimethylmethylene blue (DMMB) assay of GAG levels in chondrocyte cultures; format: cell-based; settings: for GAG levels versus control group: 10 nM
# Protocol: Chondrocyte cultures were divided into 4 groups.
# Alginate beads were dissolved as described above and further digested by papain (300 μg/ml) at 60° C. for 18 hours. The levels of DNA and sulfated glycosaminoglycan (GAG) in the samples were quantified using Hoechst 33258 dye and 1,9-dimethylmethylene blue dye, respectively. A standard curve for the DMMB assay was generated using aqueous chondroitin sulfate C solution (Sigma-Aldrich, St. Louis, Mo.) at concentrations ranging from […].
# rat articular cartilage [3] = assay: Papain-induced OA rat model, TUNEL staining of tibia articular sections; format: in vivo, Sprague-Dawley rats; settings: OA plus PTH group, 10 nM intraarticular
# Protocol: as §1
# Rats were divided into the following 3 groups: OA (OA induction without PTH [1-34] treatment) (n=18), OA plus PTH (PTH [1-34] treatment followed by OA induction) (n=18), and PTH (PTH [1-34] treatment without OA induction) (n=18). Each left knee, which served as the contralateral control joint, was injected with vehicle without PTH treatment or OA induction. The right knees were the study joints. OA was induced in the right knees of rats in the OA and OA plus PTH groups with intraarticular injections of 20 μl of 4% papain solution and 20 μl of 0.03M cysteine. The injections were given with a 26-gauge needle via the patellar tendon on days 1, 4, and 7 of the experiment (see e.g., Nucl Med Commun (1996) 17(6): 529-35). […]
# Apoptotic cells in each section were measured by TUNEL staining using the In Situ Cell Death Detection Kit, TMR red. […] DAPI-stained cells (mean±SEM 150±40) were counted in the center area of the cartilage in tibia plateaus. […]
# [4] = tested on: human articular chondrocytes; assay: Quantitative real-time PCR of mRNA levels in azaC-induced terminal differentiation culture model; format: cell-based
# Protocol: Chondrocyte cultures were divided into 4 groups. […] Louis, Mo.) for 48 hours.
substance,measurement,setting,value
PTH (1-34): 34-amino acid long peptide made up of amino-terminal amino acids 1 through 34 of human parathyroid hormone,GAG level (red:total ratio) versus OA group,"rat articular cartilage [1]; 5 nM, intraarticular every three days, 5 weeks",significantly higher
same,GAG level (red:total ratio) versus OA group,"rat articular cartilage [1]; 10 nM, intraarticular every three days, 5 weeks",significantly higher
same,GAG level (red:total ratio) versus OA group,"rat articular cartilage [1]; 100 nM, intraarticular every three days, 5 weeks",significantly higher
same,"GAG level, control group versus PTH-treated groups","rat articular cartilage [1]; 5, 10, or 100 nM, intraarticular every three days, 5 weeks",no significant difference
same,red:total ratio versus contralateral control,"rat articular cartilage [1]; OA plus PTH group, 10 nM intraarticular, 1 and 3 weeks, P<0.01",significantly lower
same,red:total ratio versus contralateral control cartilage,"rat articular cartilage [1]; OA plus PTH group, 10 nM intraarticular, 5 weeks",not significantly different
same,"red:total ratio (Safranin O-stained area to total area, GAG) versus OA group","rat articular cartilage [1]; OA plus PTH group, intraarticular 40 μl of 10 nM every 3 days, 1, 3, and 5 weeks, P<0.01",significantly higher
same,"red:total ratio, study cartilage versus contralateral control cartilage","rat articular cartilage [1]; PTH group (no OA induction), 10 nM intraarticular, any time point",no significant differences
same,GAG levels versus control group,[2]; PTH group (no azaC),not significantly different
same,GAG levels versus azaC group,"[2]; azaC plus PTH group, 10 nM, 3, 7, and 10 days, P<0.01",significantly higher
same,GAG levels versus control group,"[2]; azaC plus PTH group, after 7 and 10 days, P<0.01",higher
same,rate of apoptosis of chondrocytes in study cartilage versus contralateral control cartilage,rat articular cartilage [3],no significant difference
same,rate of apoptosis of chondrocytes in study cartilage versus OA group,rat articular cartilage [3]; P<0.01,significantly lower
same,"Col2a1 expression among azaC plus PTH, azaC and control groups","[4]; 10 nM, 10 days of treatment",no significant difference
same,"Expression of aggrecan, Col2a1, Col10a1, ALP, and IHH genes versus control group","[4]; PTH group (no azaC), 10 nM, 3-10 days of treatment",not significantly different
same,Bcl-2 expression,"[4]; PTH group (no azaC), 10 nM, 3-10 days of treatment, not statistically significant",1.7 times that in control
same,"azaC-induced changes in levels of mRNA for Col10a1, ALP, and IHH","[4]; azaC plus PTH cultures, 10 nM, 3, 7 and 10 days of treatment",significantly eliminated
same,Expression of Col10a1 and ALP versus control cultures,"[4]; azaC plus PTH cultures, 10 nM, day 3 of treatment, P<0.01",lower
same,Expression of ALP versus control cultures,"[4]; azaC plus PTH cultures, 10 nM, day 10 of treatment, P<0.05",higher
same,"IHH mRNA level, lower than control cultures","[4]; azaC plus PTH group, 10 nM, 3-10 days of treatment",47-71%
same,aggrecan mRNA level versus azaC group,"[4]; azaC plus PTH group, 10 nM, 3 and 7 days of treatment (P<0.05, P<0.01)",significantly higher
same,Col2a1 expression versus azaC group,"[4]; azaC plus PTH group, 10 nM, 3 days of treatment, P<0.05",significantly higher
same,Col2a1 expression versus azaC (P<0.01) or control (P<0.05) group,"[4]; azaC plus PTH group, 10 nM, 7 days of treatment",higher
same,aggrecan mRNA level versus azaC group,"[4]; azaC plus PTH group, 10 nM, 10 days of treatment",not different
same,Bax expression,"[4]; azaC plus PTH group, 10 nM, 14 days",1.6 times that in the control cultures
same,ratio of Bcl-2 to Bax versus control group,"[4]; azaC plus PTH group, 10 nM, after 3 days (P<0.05) and 10 days (P<0.01)",higher
same,Bcl-2 expression,"[4]; azaC plus PTH group, 10 nM, after 3 days of treatment, P<0.05",2.1 times that of control
same,Bcl-2 expression,"[4]; azaC plus PTH group, 10 nM, after 7 days of treatment, P<0.05",2.1 times control
same,Bcl-2 expression,"[4]; azaC plus PTH group, 10 nM, after 10 days of treatment, P<0.01",6.0 times control
